Calls of active or inactive are those of the source. The rule behind the calls is not given here.
What was measured:
HCT-116 [1] = test: Cytotoxicity against human HCT-116 cells incubated for 72 hrs by MTS assay; format: functional, cell-based; settings: HCT-116, 72 h
BJ = test: Cytotoxicity against human BJ cells incubated for 72 hrs by MTS assay; format: cell-based
CCRF-CEM [2] = test: Cell cycle arrest in human CCRF-CEM cells assessed as accumulation at G2/M phase at IC50 measured after 24 hrs by propidium iodide staining based flow cytometry (reference value: 22.6%); format: functional
CCRF-CEM [3] = test: Cell cycle arrest in human CCRF-CEM cells assessed as phosphorylation of histone H3 at Ser10 at 5 times IC50 measured after 24 hrs by propidium iodide staining based flow cytometry (reference value: 2.0%); format: functional
HCT-116 [4] = test: Cell cycle arrest in human HCT-116 cells assessed as accumulation at sub-G1 phase at IC50 measured after 24 hrs by propidium iodide staining based flow cytometry (reference value: 1.6%); format: functional
HCT-116 [5] = test: Cell cycle arrest in human HCT-116 cells assessed as accumulation at sub-G1 phase at 5 times IC50 measured after 24 hrs by propidium iodide staining based flow cytometry (reference value: 1.6%); format: functional
HCT-116 [6] = test: Cell cycle arrest in human HCT-116 cells assessed as accumulation at G0/G1 phase at IC50 measured after 24 hrs by propidium iodide staining based flow cytometry (reference value: 35.3%); format: functional
HCT-116 [7] = test: Cell cycle arrest in human HCT-116 cells assessed as accumulation at G2/M phase at 5 times IC50 measured after 24 hrs by propidium iodide staining based flow cytometry (reference value: 27.0%); format: functional
HCT-116 [8] = test: Cell cycle arrest in human HCT-116 cells assessed as BrdU incorporation at 5 times IC50 measured after 24 hrs by propidium iodide/immunostaining based flow cytometry (reference value: 48.6%); format: functional
CCRF-CEM [9] = test: Cell cycle arrest in human CCRF-CEM cells assessed as polyploid cell population at 2 times IC50 measured after 24 hrs by propidium iodide staining based flow cytometry (reference value: 11.3%); format: functional
CCRF-CEM [10] = test: Cell cycle arrest in human CCRF-CEM cells assessed as polyploid cell population at 2 times IC50 measured after 36 hrs by propidium iodide staining based flow cytometry (reference value: 11.3%); format: functional
CCRF-CEM [11] = test: Cell cycle arrest in human CCRF-CEM cells assessed as increase in cyclin B1 expression at 2 times IC50 measured after 6 to 12 hrs by Western blot analysis; format: functional, cell-based; settings: time 6-12 hrs
Sus scrofa = species: Sus scrofa; test: Inhibition of porcine brain tubulin polymerization assessed as Vmax of polymerization at 10 umol/L measured at 60 secs interval for 30 mins by turbidometric method; settings: dose 10.0 µmol/L

O=c1c(O)c(-c2ccccc2)[nH]c2cc(F)c(Sc3ccccc3)cc12
IC50 (HCT-116 [1]): 1300 nM | IC50 (BJ): > 50000 nM | Activity (CCRF-CEM [2]): 41.5% | Activity (CCRF-CEM [3]): 4.9% | Activity (HCT-116 [4]): 3.4% | Activity (HCT-116 [5]): 8.2% | Activity (HCT-116 [6]): 33.3% | Activity (HCT-116 [7]): 64.1% | Activity (HCT-116 [8]): 41.6% | Activity (CCRF-CEM [9]): 16.6% | Activity (CCRF-CEM [10]): 20.8% | Activity (CCRF-CEM [11]): Active | Vmax (milli optical density/minute) (Sus scrofa): 8.3

From ChEMBL document CHEMBL4680214, “Fluorinated derivatives of 2-phenyl-3-hydroxy-4(1H)-quinolinone as tubulin polymerization inhibitors” (Eur J Med Chem, 2020)
